The text below walks through data of patent US20010018051A1, “Inhibition of allograft and concordant xenograft rejection” (priority 1990, published 2001).

One data set has as its system rabbit kidney xenografts. To be noted: rabbit kidney into cats; cited from earlier work.
The format of data set [1] is in vivo. To be noted: doses of 2 mg/kg. An excerpt:
(§1) The minimum dosage of cobra venom factor is species dependent and can readily be determined by the CH50 assay. […] Effective and non-toxic dosages of other complement inhibitors can also readily be determined by those skilled in the art, for example, using the CH50 assay.

The subject of a further data set is complement activity. Nature of the data set: onset and duration of cobra venom factor activity after intramuscular administration. The data set is classed as in vivo. The method, then: as §1
Cobra venom factor takes about 6 hours for its initial activity to take effect after intramuscular administration. Once the initial activity is observed, it can last for more than 1 day, for example 2 days, and so daily administration of cobra venom factor may not be necessary. In fact, it is preferred to administer cobra venom factor on alternate days, in which case the preferred daily dosages given above will be doubled on the day of administration.

A further data set deals with hamster heart xenograft. Nature of the data set: hamster heart xenograft survival in rats. The data set is classed as in vivo, rat. To be noted: hamster heart in DA rats; i.m. on alternate days from time of transplantation (cyclosporin A 20 mg/kg, cobra venom factor 0.4 mg/kg).

Text for hamster heart xenograft: All other cardiac vessels were ligated.
Injections were given on alternate days thereafter.

Turning to `C[C@H](CS)C(=O)N1CCC[C@H]1C(=O)O` [captopril], in the data set with rabbit kidney xenografts, the “prevention of hyperacute rejection” value is given as “not prevented”. In the case of `CCOC(=O)[C@H](CCc1ccccc1)N[C@@H](C)C(=O)N1CCC[C@H]1C(=O)O` [enalapril], the “prevention of hyperacute rejection” value with rabbit kidney xenografts is reported as “not prevented”. Turning to `CCCCC[C@H](O)/C=C/[C@@H]1[C@H]2C/C(=C/CCCC(=O)O)O[C@H]2C[C@H]1O` [prostacyclin], in the data set on rabbit kidney xenografts, the “prevention of hyperacute rejection” value is recorded as “not prevented”. With `O=C(O)c1cc(=O)c2c(OCC(O)COc3cccc4oc(C(=O)O)cc(=O)c34)cccc2o1` [sodium chromoglycate], in the data set on rabbit kidney xenografts, the “prevention of hyperacute rejection” value is given as “not prevented”.

cobra venom factor: the “prolongation in graft survival” value in the data set with rabbit kidney xenografts is “up to seven days”. Moreover, the toxicity result in data set [1] was “do not appear to be toxic”. For the same compound, in the data set on complement activity, the “duration of activity once observed” value is listed as “more than 1 day” and the “time for initial activity to take effect” value is “about 6 hours”. Further, the “median graft survival rate” value in the data set with hamster heart xenograft was found to be 6 days.
